Data set [1] has as its target T1, human MR (Homo sapiens, UniProt P08235).
T1 construct: host or cells: CHO (DSMZ ACC-110), CHO-Gal4/MR
T1 sequence (P08235 726-964 limits assumed): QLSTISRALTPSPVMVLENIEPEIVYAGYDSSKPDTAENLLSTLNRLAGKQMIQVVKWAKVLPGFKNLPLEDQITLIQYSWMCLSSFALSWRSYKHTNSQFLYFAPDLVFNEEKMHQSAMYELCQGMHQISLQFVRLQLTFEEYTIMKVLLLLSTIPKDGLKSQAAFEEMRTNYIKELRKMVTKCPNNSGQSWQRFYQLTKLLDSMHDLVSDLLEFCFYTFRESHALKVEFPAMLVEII
The data set can be described thus: MR reporter gene (transactivation) assay, CHO-Gal4/MR. The format is cell-based. The source says:
To create the CHO-Gal4/GR, CHO-Gal4/PR, and CHO-Gal4/MR reporter cell lines, first CHO cells were stably transfected with a GAL4-UAS-luciferase reporter construct. Then, the LBD of the GR, PR, or MR (GR Gene ID: 2908, PR Gene ID: 5241, MR Gene ID: 4306, respectively) was cloned into pIRES2-EGFP-GAL4 containing the DBD of GAL4 from pFA-AT2, and then co-transfected into the luciferase-reporter construct-containing CHO cells. These reporter cell lines express the respective nuclear hormone receptor LBD-DBD fusion proteins that control luciferase expression of a GAL4-upstream activation sequence (UAS)-luciferase reporter construct, allowing for detection of ligand- or compound-induced transactivation at the GR, PR, or MR by measuring luciferase activity.
Cryo-preserved CHO-Gal4/GR, CHO-Gal4/PR, and CHO-Gal4/MR cells were plated in medium at 7,500 cells/well in 384-well assay plates (25 μL/well), and incubated for 24 h. […] Following a 4-h incubation, cells were lysed and luminescence measured using the EMCCD camera FLIPR®Tetra (Molecular Devices, Silicon Valley, CA, United States).
Transactivation (i.e., gene activation) was expressed as a percentage of the reference agonist activity (Supplementary Material), using Genedata Screener® v15.0.5 software (Basel, Switzerland).
Transactivation was calculated according to this equation: […]
In general terms: In a reporter assay the amount or activity of a reporter protein is the signal.

Data set [2] relates to IL-1β–induced IL-6 release in A549 cells. Put plainly: Inhibition of IL-1β–induced IL-6 release in A549 cells. The class given is cell-based, human. The procedure: Cells from the human lung epithelial cell line A549 (CCL-185, ATCC) were seeded in 96-well plates at a density of […] in F12K Nutrient Mix (Gibco™, ThermoFisher Scientific, Waltham, MA, United States) with 10% fetal calf serum (FCS), and cultured for 24 h in standard conditions. […] After 30 min’ incubation, human IL-1β (1 ng/mL final concentration) was added at 50 µL/well, followed by a 20 h-incubation in standard conditions. Human IL-6 was measured in the collected supernatant using the human AlphaLISA® immunoassay kit (PerkinElmer; Supplementary Material).
Per the human AlphaLISA® (PerkinElmer) immunoassay kit instructions, the immuno-assay buffer was diluted 1:10 in water and the human IL-6 analyte standard was diluted in FCS-free F12K nutrient mix (30,000–10 pg/mL). Each standard dilution or sample (5 μL each) was added to the wells of a 96-well polystyrene compound plate, to which 20 µL of the test mix 1 (containing anti-IL-6 acceptor beads and biotinylated anti-IL-6 antibody diluted 1:200 in immuno-assay-buffer) was added to each well and incubated for 1 h at room temperature. Afterwards, donor beads were diluted 1:62.5 in immuno-assay-buffer and 25 µL were transferred to each well. After a 30-min incubation at room temperature, the plates were read using an EnVision Multilabel Reader® (PerkinElmer) equipped with the ALPHA option.

The conditions of data set [3]: humans ref Ferry et al., 1988; cited from earlier work.
In data set [4] the test system is SCW-induced ankle inflammation in female Lewis rats. The data set can be described thus: Rat streptococcal cell wall (SCW) model of joint inflammation. The format is in vivo.
Experimental: Female Lewis rats (150–200 g, Charles River, United Kingdom) were used for the model of joint inflammation (see Supplementary Material for animal care), with in vivo efficacy assays conducted at the Saretius Ltd., Science and Technology Centre (Reading, United Kingdom). Monoarticular joint inflammation was induced on Day −21 by intra-articular injection of 10 μg of streptococcal cell wall (SCW) extract (Lee Laboratories, BD Scientific, Franklin Lakes, NJ, United States) into the left hind ankle joint. […] Treatments, including control, were administered orally once daily on Days −1 to 6 of the study. Additionally, on Day 0, each rat received an intravenous (IV) dose of 100 μg SCW extract 2 h after oral dosing. IV injections were given after rats had spent up to 10 min in a 40°C hot box (Thermacage MK2, Datesand Ltd., Manchester, United Kingdom).
Rat ankle diameters were measured using digital calipers (Mitutoyo, United Kingdom, Model: CDS6CX), mechanical allodynia tested using von Frey hairs, and rats weighed, per the schedule in Supplementary Table S2. […] On Day 6, rats were euthanized by a schedule 1 method (carbon dioxide) and terminal blood samples collected by cardiac puncture. After centrifugation to obtain plasma supernatant (10,000 rpm, 3 min), plasma was stored at −20°C until analysis. […] Glucose test strips (Roche Accu-Check with Aviva blood glucose system meter) were used to measure blood glucose levels at the time blood was drawn. All data were analyzed with Statistica v11 software (StatSoft Inc., Tulsa, OK, United States), using the Kolmogorov-Smirnov test to assess normality of distribution (see Supplementary Material for further detail), and to determine total area under the concentration-time curve (AUC) using the trapezoidal method. […] The effect of each treatment on ankle inflammation was determined by the reduction in ipsilateral ankle AUC versus control.
Data that was not normally distributed were analyzed with Kruskal-Wallis analysis of variance (ANOVA) followed by Dunn’s multiple comparisons tests. Normally distributed data were analyzed with repeated measures ANOVAs as appropriate, one-way ANOVAs and Dunnett’s post hoc tests.
Data set [5] concerns IL-6 release in A549 cells. More on the design: method as in Hu et al., 2011. The note with it: dagrocorat study ref Hu et al., 2011; cited from earlier work.
Data set [6] has as its system OPG release in human osteoblast cell line MG-63. The data set can be described thus: Inhibition of OPG release in MG-63 osteoblast cells. The class given is cell-based. Conditions: MG-63 cells, 24 h. The procedure:
([Humphrey et al., 2006]). […] After a 24-h incubation in standard conditions, supernatant was collected and OPG measured using the human osteoprotegerin/TNFRSF11B DuoSet® ELISA (R&D Systems, Minneapolis, MN, United States), according to the manufacturer’s instructions (Supplementary Material). A 3-parameter nonlinear regression was performed using GraphPad PRISM v7.03 software (Graphpad Software Inc.) to determine IC50 values.
All incubations in this assay were conducted at room temperature. Anti-OPG capture antibodies, diluted in Dulbecco's phosphate-buffered saline (DPBS), were transferred into a coated 96-well plate (100 µL/well). After overnight incubation, and triplicate washing (400 µL/well) with wash buffer (0.05% Tween 20 in DPBS, pH 7.2–7.4), 300 µL of Reagent Diluent (1% bovine serum albumin [BSA] in DPBS) was added, followed by a 1-h incubation, and thereafter three washing steps again. Then, 100 µL of supernatant, standard or reagent diluent were added per well for a 2-h incubation. After repeating three washing steps, 100 µL of detection antibody diluted in reagent diluent (including normal goat serum) were added to each well, followed by a 2-h incubation. After repeating three washing steps, 100 µL of Streptavidin conjugated to horseradish-peroxidase solution was added per well for a 20-min incubation. Finally, 50 µL/well of stop solution was added. After gently shaking of the plate to ensure thorough mixing, the optical density of each well was determined immediately using the Eon™ Microplate Spectrophotometer (Bio Tek Instruments) set at 450 nm.
Supplementary Figure S2. […] Error bars indicate standard error of the mean. […] Log c, log concentration.

Turning to `C[C@]12C=CC(=O)C=C1CC[C@@H]1[C@@H]2[C@@H](O)C[C@@]2(C)[C@H]1CC[C@]2(O)C(=O)CO` [Prednisolone], the EC50 – broadly, the midpoint of the concentration-response curve – in data set [1] (4-h incubation) worked out at 11.8 ± 3.2 nM. In addition, in data set [1] (% of reference agonist fludrocortisone), the “MR transactivation, mean activation” value is 66.4 ± 4.7%. Moreover, the “Inhibition of IL-1β–induced IL-6 release” value in data set [2] (100% = 1 μM dexamethasone) was 101 ± 2.7%. The IC50 (as a rule, the concentration that gives 50% inhibition) was 0.86 ± 0.13 nM in data set [2] (Homo sapiens, IL-1β 1 ng/mL, 20 h) and 3.1 ± 4.3 nM in data set [6] (Homo sapiens). Moreover, the t½ – broadly, the time needed for the level to fall by half in the phase considered – in data set [3] is on record as approximately 2.5 h. For the same compound, the “change in blood glucose AUC2.5–24h versus vehicle” value in data set [4] (Day 5, GRM-01 any dose 0.01–1 mg/kg/day, prednisolone 30 mg/kg/day) is reported as “statistically significant increase”. Further, the “blood glucose at time points post dose versus vehicle” value in data set [4] (Day 5, GRM-01 at 2.5 h, all doses except 0.03 mg/kg/day, not dose dependent, prednisolone 30 mg/kg/day at 2.5, 4 and 6 h) is “significantly higher blood glucose levels”. The “effect on plasma corticosterone levels vs vehicle” value in data set [4] (Day 6, GRM-01 significant at 0.3 mg/kg/day (p < 0.01), prednisolone 30 mg/kg/day (p < 0.01)) was “reduced plasma corticosterone levels”. In addition, the “antinociceptive effect (ipsilateral paw withdrawal threshold vs vehicle)” value in data set [4] (GRM-01 0.1, 0.3, 1 mg/kg/day, prednisolone 30 mg/kg/day) is listed as “demonstrated an antinociceptive effect”. The 50% effective dose (ED50) (usually the dose that gives a 50% effect, or the effect in half of the subjects) in data set [4] (rat SCW model, separate and independent study, doses 0.003–30 mg/kg, read-out: ED50, change in AUC of ankle diameter) is 2.49 mg/kg. Besides, in data set [5], the “inhibition of IL-6 release in A549 cells” value is listed as 100%. The “Inhibition of OPG release (maximal level)” value in data set [6] is reported as 100 ± 0%; in data set [6] (listed as prednisolone), “fully inhibiting OPG release”.

These data come from paper PMC11920646 (Frontiers in Pharmacology, 2025).
